The text below walks through data of patent publication US10544143B2, “4-azaindole compounds” (BRISTOL-MYERS SQUIBB COMPANY, priority 2017, dated 2020).

Assay [1] addresses human TLR9 (Homo sapiens (Human), UniProt Q9NR96). The experiment in a line: TLR9 inhibition reporter assay (HEK-Blue SEAP).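 Further: SEAP driven by an IFN-β minimal promoter with NF-κB and AP-1 sites, read after 22 h, compounds dosed 0.05 nM–50 µM, inhibition scaled between agonist plus DMSO and reference-inhibitor wells.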 To be noted: read-out: TLR9 IC50; HEK-Blue cells overexpressing human TLR9, SEAP reporter, ODN2006 5 nM.
Assay [2] concerns the target human TLR7 (Homo sapiens (Human), UniProt Q9NYK1). The experiment in a line: TLR7 inhibition reporter assay (HEK-Blue SEAP). In kind it is cell-based. The conditions noted are these: HEK-Blue cells overexpressing human TLR7, SEAP reporter, gardiquimod 7.5 μM.
For assay [3], the target named is human TLR8 (Homo sapiens (Human), UniProt Q9NR97). The experiment in a line: TLR8 inhibition reporter assay (HEK-Blue SEAP).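 Further: SEAP driven by IFN-β minimal promoter carrying NF-κB and AP-1 sites, compounds dosed 0.05 nM to 50 µM for 22 h, inhibition scaled between agonist-plus-DMSO and reference-inhibitor wells.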 The conditions noted are these: read-out: TLR8 IC50; HEK-Blue cells overexpressing human TLR8, SEAP reporter, R848 15.9 μM. On the technique in general: Reporter assays use an easily measured gene product as a stand-in for the process of interest.
Chain of human TLR8 (Q9NR97 27-1041): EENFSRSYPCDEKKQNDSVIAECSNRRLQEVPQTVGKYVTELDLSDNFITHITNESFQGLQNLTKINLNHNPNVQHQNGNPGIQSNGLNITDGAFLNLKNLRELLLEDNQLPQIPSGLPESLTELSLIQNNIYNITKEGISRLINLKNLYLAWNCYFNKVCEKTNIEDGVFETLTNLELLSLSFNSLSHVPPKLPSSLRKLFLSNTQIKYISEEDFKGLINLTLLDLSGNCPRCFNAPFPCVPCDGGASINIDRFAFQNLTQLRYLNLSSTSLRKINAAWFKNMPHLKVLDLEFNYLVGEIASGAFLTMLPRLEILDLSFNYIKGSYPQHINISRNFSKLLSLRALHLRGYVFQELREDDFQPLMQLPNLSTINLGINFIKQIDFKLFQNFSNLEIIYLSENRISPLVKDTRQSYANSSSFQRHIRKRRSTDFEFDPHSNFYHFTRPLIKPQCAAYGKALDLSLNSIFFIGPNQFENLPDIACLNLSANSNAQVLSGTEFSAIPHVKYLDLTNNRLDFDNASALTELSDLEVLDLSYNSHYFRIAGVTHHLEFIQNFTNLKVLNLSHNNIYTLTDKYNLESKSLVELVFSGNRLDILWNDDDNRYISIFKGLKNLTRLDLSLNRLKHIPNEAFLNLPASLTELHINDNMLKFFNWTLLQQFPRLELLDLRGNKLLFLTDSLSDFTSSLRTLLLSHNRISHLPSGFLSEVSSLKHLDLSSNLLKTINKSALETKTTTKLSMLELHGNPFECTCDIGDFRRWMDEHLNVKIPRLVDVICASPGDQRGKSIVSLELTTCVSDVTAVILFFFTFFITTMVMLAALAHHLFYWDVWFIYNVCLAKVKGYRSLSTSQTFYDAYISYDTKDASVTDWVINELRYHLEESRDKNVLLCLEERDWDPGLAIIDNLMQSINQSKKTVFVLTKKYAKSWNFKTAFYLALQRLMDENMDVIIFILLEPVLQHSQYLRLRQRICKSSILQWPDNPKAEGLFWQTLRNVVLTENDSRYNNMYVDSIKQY

Each structure is given as a SMILES string. pIC50: −log10 of the molar value.

Chain of human TLR7 (Q9NYK1 27-1049): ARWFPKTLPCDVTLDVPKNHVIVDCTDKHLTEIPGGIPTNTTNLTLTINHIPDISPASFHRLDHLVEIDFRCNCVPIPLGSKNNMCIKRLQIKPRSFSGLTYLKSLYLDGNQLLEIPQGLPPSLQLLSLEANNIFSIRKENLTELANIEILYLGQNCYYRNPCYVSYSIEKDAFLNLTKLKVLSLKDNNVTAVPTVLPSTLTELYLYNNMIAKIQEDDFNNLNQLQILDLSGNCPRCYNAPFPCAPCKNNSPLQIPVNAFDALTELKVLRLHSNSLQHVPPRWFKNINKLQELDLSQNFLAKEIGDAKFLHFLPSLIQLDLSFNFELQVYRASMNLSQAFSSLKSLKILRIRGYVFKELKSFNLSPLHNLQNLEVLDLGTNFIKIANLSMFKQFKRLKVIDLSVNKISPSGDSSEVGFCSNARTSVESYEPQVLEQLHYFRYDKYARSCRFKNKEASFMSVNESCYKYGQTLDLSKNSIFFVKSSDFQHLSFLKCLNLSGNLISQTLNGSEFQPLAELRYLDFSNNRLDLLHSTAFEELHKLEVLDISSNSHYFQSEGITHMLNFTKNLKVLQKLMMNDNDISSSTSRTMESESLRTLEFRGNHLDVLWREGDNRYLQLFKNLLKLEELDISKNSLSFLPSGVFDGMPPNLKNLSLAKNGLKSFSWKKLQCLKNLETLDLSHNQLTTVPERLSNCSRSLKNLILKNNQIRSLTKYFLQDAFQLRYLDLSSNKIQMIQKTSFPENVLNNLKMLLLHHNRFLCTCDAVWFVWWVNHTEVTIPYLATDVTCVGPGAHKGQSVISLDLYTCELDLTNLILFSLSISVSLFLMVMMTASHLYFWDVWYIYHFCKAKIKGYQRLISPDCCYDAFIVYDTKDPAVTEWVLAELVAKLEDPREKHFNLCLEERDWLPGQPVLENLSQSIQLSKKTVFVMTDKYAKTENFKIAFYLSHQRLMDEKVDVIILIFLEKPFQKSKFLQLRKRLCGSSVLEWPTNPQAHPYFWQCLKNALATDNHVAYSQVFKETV
Chain of human TLR9 (Q9NR96 26-1032): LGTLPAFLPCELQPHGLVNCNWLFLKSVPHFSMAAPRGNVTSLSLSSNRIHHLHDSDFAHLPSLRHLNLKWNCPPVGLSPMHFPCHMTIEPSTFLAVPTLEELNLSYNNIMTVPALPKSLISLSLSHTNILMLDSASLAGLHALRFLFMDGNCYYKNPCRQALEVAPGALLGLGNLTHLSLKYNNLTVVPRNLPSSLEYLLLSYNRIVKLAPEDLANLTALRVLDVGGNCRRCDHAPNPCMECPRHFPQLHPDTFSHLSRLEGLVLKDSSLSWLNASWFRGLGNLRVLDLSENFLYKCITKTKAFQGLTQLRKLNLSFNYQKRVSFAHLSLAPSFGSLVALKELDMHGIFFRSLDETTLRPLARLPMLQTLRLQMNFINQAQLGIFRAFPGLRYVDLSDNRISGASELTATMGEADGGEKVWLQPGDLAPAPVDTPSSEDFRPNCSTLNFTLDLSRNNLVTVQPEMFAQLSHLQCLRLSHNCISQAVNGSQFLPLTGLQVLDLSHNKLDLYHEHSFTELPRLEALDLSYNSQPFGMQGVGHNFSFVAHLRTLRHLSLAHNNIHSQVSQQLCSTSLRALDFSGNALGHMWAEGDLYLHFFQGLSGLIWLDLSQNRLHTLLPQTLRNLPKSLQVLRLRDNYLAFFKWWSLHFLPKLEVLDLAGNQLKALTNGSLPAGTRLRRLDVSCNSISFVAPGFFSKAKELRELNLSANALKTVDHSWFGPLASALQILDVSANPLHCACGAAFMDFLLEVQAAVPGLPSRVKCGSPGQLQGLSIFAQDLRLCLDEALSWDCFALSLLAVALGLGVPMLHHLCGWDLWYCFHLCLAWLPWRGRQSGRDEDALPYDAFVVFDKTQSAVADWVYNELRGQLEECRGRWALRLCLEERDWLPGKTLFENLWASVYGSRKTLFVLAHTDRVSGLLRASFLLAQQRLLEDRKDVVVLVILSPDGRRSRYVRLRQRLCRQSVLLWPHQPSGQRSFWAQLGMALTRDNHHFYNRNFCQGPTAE

In the case of `Cc1c(-c2[nH]c3ccc(C4CC(N(C)CCS(C)(=O)=O)C4)nc3c2C(C)C)cn2ncnc2c1C` (stereo not drawn) [Example 636], the pIC50 (as a rule, −log10 of the IC50, conventionally taken in molar units) in assay [1] was 4.67; in assay [2], 7.34; in assay [3], 7.55.
For `Cc1c(-c2[nH]c3ccc(C4CC(NCC5(C)COC5)C4)nc3c2C(C)C)cn2ncnc2c1C` (stereo not drawn) [Example 637] the same measures were 5.87, 8.42 and 9.28.
Regarding `COc1cc(-c2[nH]c3ccc(C4CC(NC(=O)CN(C)C)C4)nc3c2C(C)C)cn2ncnc12` (stereo not drawn) [Example 638], the pIC50 is 5.90 in assay [1], 8.54 in assay [2] and 8.14 in assay [3].
On the same counts, the results for `COc1cc(-c2[nH]c3ccc(C4CC(N(C)C)C4)nc3c2C(C)C)cn2ncnc12` (stereo not drawn) [Example 639] are 5.83, 9.01 and 8.72.
Consider `COc1cc(-c2[nH]c3ccc(C4CC(N(C)CCS(C)(=O)=O)C4)nc3c2C(C)C)cn2ncnc12` (stereo not drawn) [Example 640], for which the negative logarithm of the IC50 (pIC50) in assay [1] is 4.87; in assay [2] it was 8.31; in assay [3], 8.31.
Consider `Cc1c(-c2[nH]c3ccc(C4CC(N(C)CC(C)(C)O)C4)nc3c2C(C)C)cn2ncnc2c1C` (stereo not drawn) [Example 641], for which the pIC50 was 5.48 in assay [1], 8.04 in assay [2] and 8.46 in assay [3].
Regarding `COc1cc(-c2[nH]c3ccc(C4CC(N(C)CCS(C)(=O)=O)C4)nc3c2C(C)C)cn2ncnc12` (stereo not drawn) [Example 642], the pIC50 in assay [1] was 4.74; in assay [2], 7.85; in assay [3], 7.59.
On the same counts, the results for `COc1cc(-c2[nH]c3ccc(C4CC(N(C)CC5(C)COC5)C4)nc3c2C(C)C)cn2ncnc12` (stereo not drawn) [Example 643] are 5.50, 8.27 and 8.28.
Consider `Cc1c(-c2[nH]c3ccc(C4CC(NC(=O)CN(C)C)C4)nc3c2C(C)C)cn2ncnc2c1C` (stereo not drawn) [Example 644], for which the pIC50 in assay [1] is 5.57; in assay [2] it was 8.57; in assay [3] it was 8.35.
Take `COc1cc(-c2[nH]c3ccc(C4CN(CC(N)=O)C4)nc3c2C(C)C)cn2ncnc12` [Example 645]: the pIC50 in assay [1] is 5.39; in assay [2] it was 7.68; in assay [3] it was 6.52.
Take `Cc1c(-c2[nH]c3ccc(C4CN(CC(N)=O)C4)nc3c2C(C)C)cn2ncnc2c1C` [Example 646]: the pIC50 is 5.38 in assay [1], 8.68 in assay [2] and 7.96 in assay [3].
On to `COc1cc(-c2[nH]c3ccc(C4CN(CCS(C)(=O)=O)C4)nc3c2C(C)C)cn2ncnc12` [Example 647], for which the results for the pIC50 in assay [1], in assay [2] and in assay [3] were 5.23, 8.64 and 7.59, respectively.
Turning to `COc1cc(-c2[nH]c3ccc(C4CNC4)nc3c2C(C)C)cn2ncnc12` [Example 648], the pIC50 in assay [1] was 5.68; in assay [2], 8.68; in assay [3] it was 7.40.
On the same counts, the results for `Cc1c(-c2[nH]c3ccc(C4CNC4)nc3c2C(C)C)cn2ncnc2c1C` [Example 649, 6-(5-(azetidin-3-yl)-3-isopropyl-1H-pyrrolo[3,2-b]pyridin-2-yl)-7,8-dimethyl-[1,2,4]triazolo[1,5-a]pyridine] are 5.48, 8.21 and 8.00.
`Cc1c(-c2[nH]c3ccc(C4CN(C(=O)CN(C)C)C4)nc3c2C(C)C)cn2ncnc2c1C` [Example 650]: the negative logarithm of the IC50 (pIC50) in assay [1] is 5.51; in assay [2] it was 8.17; in assay [3], 7.74.
With `COc1cc(-c2[nH]c3ccc(C4CN(Cc5c[nH]nn5)C4)nc3c2C(C)C)cn2ncnc12` [Example 651], the pIC50 is 6.16 in assay [1], 8.77 in assay [2] and 7.62 in assay [3].
In the case of `COc1cc(-c2[nH]c3ccc(C4CN(C(=O)CN(C)C)C4)nc3c2C(C)C)cn2ncnc12` [Example 652], the pIC50 in assay [1] was 5.80; in assay [2], 8.52; in assay [3] it was 7.66.
For `Cc1c(-c2[nH]c3ccc(C4CN(CCS(C)(=O)=O)C4)nc3c2C(C)C)cn2ncnc2c1C` [Example 653, 6-(3-isopropyl-5-(1-(2-(methylsulfonyl)ethyl)azetidin-3-yl)-1H-pyrrolo[3,2-b]pyridin-2-yl)-7,8-dimethyl-[1,2,4]triazolo[1,5-a]pyridine] the same measures were 4.88, 8.26 and 7.89.
As to `Cc1c(-c2[nH]c3ccc(C4CN(CC(C)(C)O)C4)nc3c2C(C)C)cn2ncnc2c1C` [Example 654], the values for the pIC50 in assay [1], in assay [2] and in assay [3] were 5.31, 8.19 and 8.02, respectively.
Regarding `COc1cc(-c2[nH]c3ccc(C4CN(C(C)C)C4)nc3c2C(C)C)cn2ncnc12` [Example 655], the results for the pIC50 in assay [1], in assay [2] and in assay [3] were 5.68, 8.85 and 7.96, respectively.
For the compound `Cc1c(-c2[nH]c3ccc(C4CN(C(C)C)C4)nc3c2C(C)C)cn2ncnc2c1C` [Example 656], the pIC50 in assay [1] was 5.73; in assay [2], 8.85; in assay [3], 8.33.
For the compound `COc1cc(-c2[nH]c3ccc(C4CN(CC(C)(C)O)C4)nc3c2C(C)C)cn2ncnc12` [Example 657], the pIC50 in assay [1] is 6.07; in assay [2] it was 8.68; in assay [3] it was 8.00.
As to `Cc1c(-c2[nH]c3ccc(C4CN(C(C)C)CCO4)nc3c2C(C)C)cn2ncnc2c1C` (stereo not drawn) [Example 658], the pIC50 in assay [1] is 4.87; in assay [2], 8.42; in assay [3], 8.09.
On the same counts, the results for `COc1cc(-c2[nH]c3ccc(C4CN(C5CCOCC5)CCO4)nc3c2C(C)C)cn2ncnc12` (stereo not drawn) [Example 659] are 5.07, 7.92 and 7.62.
`COc1cc(-c2[nH]c3ccc(C4CN(C(C)C)CCO4)nc3c2C(C)C)cn2ncnc12` (stereo not drawn) [Example 660, 4-isopropyl-2-(3-isopropyl-2-(8-methoxy-[1,2,4]triazolo[1,5-a]pyridin-6-yl)-1H-pyrrolo[3,2-b]pyridin-5-yl)morpholine]: the figures for the pIC50 in assay [1], in assay [2] and in assay [3] were 4.84, 8.48 and 7.82, respectively.
For `COc1cc(-c2[nH]c3ccc(C4CN(C)CCO4)nc3c2C(C)C)cn2ncnc12` (stereo not drawn) [Example 661], the pIC50 in assay [1] is 4.86; in assay [2], 8.64; in assay [3], 8.26.
On the same counts, the results for `Cc1c(-c2[nH]c3ccc(C4CNCCO4)nc3c2C(C)C)cn2ncnc2c1C` (stereo not drawn) [Example 662] are 5.04, 8.74 and 9.00.
On the same counts, the results for `Cc1c(-c2[nH]c3ccc(C4CN(C(=O)CN(C)C)CCO4)nc3c2C(C)C)cn2ncnc2c1C` (stereo not drawn) [Example 663] are 4.67, 8.46 and 8.00.
Consider `Cc1c(-c2[nH]c3ccc(C4CN(C5CCOCC5)CCO4)nc3c2C(C)C)cn2ncnc2c1C` (stereo not drawn) [Example 664], for which the pIC50 in assay [1] was 4.41; in assay [2], 7.66; in assay [3] it was 7.85.
As for `Cc1cc(-c2[nH]c3ccc(C4CN(C)CCO4)nc3c2C(C)C)cn(C)c1=O` (stereo not drawn) [Example 665], the pIC50 in assay [1] was below 4.30; in assay [2] it was 7.47; in assay [3], 7.77.
For `COc1cc(-c2[nH]c3ccc(C4CNCCO4)nc3c2C(C)C)cn2ncnc12` (stereo not drawn) [Example 666] the same measures were 5.18, 9.14 and 8.80.
